Assay results from patent US20230286973A1, “PROTEIN SECRETION INHIBITORS” (KEZAR LIFE SCIENCES, priority 2020, published 2023).
Like-named read-outs stand apart in the source and are kept apart here.

Assays:
[1] = tested on: PD1-ss+10aa/Gaussia Luciferase; experiment: Dox-Induced PD1-ss-Gluc Assay; type: cell-based; details: 24 hr Dox induction, 293FRT/TO cells, read-out: 24 hr Dox Inducible PD1ssGluc 293FRT/TO: Mean IC50
Outline: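 The cell line was made by transfecting Flp-In 293 T-REx cells with a PD1 signal sequence+10aa–Gaussia luciferase fusion under T-REx control and selecting with hygromycin and blasticidin. Cells were seeded, and next day compound plus doxycycline was added at 37 °C, 5% CO2.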

[2] = tested on: TNFα-FL/Gaussia Luciferase; experiment: Dox Induced TNFα-FL-Gluc Assay; type: cell-based; details: for IC50: 24 hr Dox induction, 293FRT/TO cells, read-out: 24 hr Dox Inducible TNFaFLGluc 293FRT/TO: Mean IC50; for 24 hr Dox Inducible TNFaFLGluc 293FRT/TO: TNF/PD1: ratio of TNFaFLGluc IC50 to PD1ssGluc IC50
Outline: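 Flp-In 293 T-REx cells stably carrying doxycycline-inducible full-length TNFα (aa 1-233) fused to Gaussia luciferase. Plated the day before, then treated with compound dilutions in doxycycline-containing medium at 37° C, 5% CO2.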

[3] = tested on: HER3-ss+4aa/Gaussia Luciferase; experiment: Dox-Induced Her3-ss-Gluc Assay; type: cell-based; details: 24 hr Dox induction, 293FRT/TO cells, read-out: 24 hr Dox Inducible Her3(ss + 4)Gluc 293FRT/TO: Mean IC50
Outline: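 Stable Flp-In 293 T-REx cells carried a doxycycline-inducible HER3 signal sequence (+4 aa) fused to Gaussia luciferase. Cells were plated the day before the assay. Compound dilutions in DMSO/media containing doxycycline were then added, and plates were incubated at 37 °C, 5% CO2.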

[4] = tested on: IL-2-FL/Gaussia Luciferase; experiment: Dox Induced IL2-FL-Gluc Assay; type: cell-based; details: for IC50: 24 hr Dox induction, 293FRT/TO cells, read-out: 24 hr Dox Inducible IL2FLGluc 293FRT/TO: Mean IC50; for 24 hr Dox Inducible IL2FLGluc 293FRT/TO: IL2/PD1: ratio of IL2FLGluc IC50 to PD1ssGluc IC50
Outline: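 Stable Flp-In 293 T-REx cells carrying doxycycline-inducible full-length IL-2 (aa 1-153) fused to Gaussia luciferase, plated the day before assay. Compound dilutions added in medium containing doxycycline, incubated at 37 °C, 5% CO2. Undefined stereocentres mean data refer to stereoisomer mixtures.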

[5] = tested on: multiple myeloma cell line NCI-H929; experiment: H929 Cell Viability Assay; type: cell-based, human; details: Homo sapiens, NCI-H929, 48 h, NCI-H929 cells, Celltiter-Glo
Outline: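 NCI-H929 cells in RPMI 1640 with 10% FBS were treated with compound dilutions for 48 h at 37° C, 5% CO2. Viability was read by CellTiter-Glo luminescence. Undefined stereocentres denote stereoisomer mixtures.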

[6] = tested on: multiple myeloma cell line U266B1; experiment: U266 Cell Viability Assay; type: cell-based, human; details: Homo sapiens, U-266, 48 h, U266B1 cells, Celltiter-Glo
Outline: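 U266B1 multiple myeloma cells in RPMI 1640/10% FBS were treated with compound dilutions for 48 h at 37 °C, 5% CO2. Viability was measured by CellTiter-Glo luminescence; compounds drawn without stereochemistry were tested as stereoisomer mixtures.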

[7] = Liver Microsome Stability Assay (rat); details: rat liver microsomes, with NADPH, 1.0 uM compound
Description: (§1) Stability of a compound was assessed in the presence of liver microsomes from various sources—mouse, rat, monkey and human liver microsomes. 1.0 uM compound, 0.4% DMSO in 0.1 M Potassium Phosphate with 1.0 mg/mL liver microsomes, were incubated at 37° C. with or without 1 mM NADPH. The samples were quenched at 0, and 30 minutes.

[8] = Liver Microsome Stability Assay (mouse); details: mouse liver microsomes, with NADPH, 1.0 uM compound
Description: as §1

[9] = Liver Microsome Stability Assay (human); details: human liver microsomes, with NADPH, 1.0 uM compound
Description: as §1

[10] = Liver Microsome Stability Assay (monkey); details: monkey liver microsomes, with NADPH, 1.0 uM compound
Description: as §1

[11] = '<=>' given where both are I.A.

Row | IC50 ([1]; mean) | IC50 ([2]; mean) | IC50 ([3]; mean) | IC50 ([4]; mean) | EC50 [5] | EC50 [6] | Liver Microsome Stability (Multiple Species): Rat - % Remaining after 30 min w/NADPH [7] | Liver Microsome Stability (Multiple Species): Mouse - % Remaining after 30 min w/NADPH [8] | Liver Microsome Stability (Multiple Species): Human - % Remaining after 30 min w/NADPH [9] | Liver Microsome Stability (Multiple Species): Monkey - % Remaining after 30 min w/NADPH [10] | IC50 [1] | IC50 [2] | IC50 [3] | IC50 [4] | Structure (SMILES) | 24 hr Dox Inducible TNFaFLGluc 293FRT/TO: TNF/PD1 [2, 11] | 24 hr Dox Inducible IL2FLGluc 293FRT/TO: IL2/PD1 [4, 11] | 24 hr Dox Inducible TNFaFLGluc 293FRT/TO: TNF/PD1 [2] | 24 hr Dox Inducible IL2FLGluc 293FRT/TO: IL2/PD1 [4]
1 | 1.04 µM | > 25 µM | 10.6 µM | > 25 µM | > 25 µM | > 25 µM | 1.86% | 29.8% | 5.39% | 1.35% |  |  |  |  | O=C(Nc1nc(/C=C/c2ncoc2C2CCCCC2)cs1)c1cccn1CC1CCOCC1 [Compound D4, (E)-N-(4-(2-(5-cyclohexyloxazol-4-yl)vinyl)thiazol-2-yl)-1-((tetrahydro-2H-pyran-4-yl)methyl)-1H-pyrrole-2-carboxamide] | >24.1 | >24 |  | 
2 | 2.2 µM | > 25 µM | 2.42 µM | 2.88 µM | > 25 µM | > 25 µM | 67.5% | 65.6% | 87.9% | 63% |  |  |  |  | O=C(Nc1nc([C@H]2CCCN2c2ccccc2)cs1)c1cccn1Cc1ccccc1 [Compound C5, (R)-1-benzyl-N-(4-(1-phenylpyrrolidin-2-yl)thiazol-2-yl)-1H-pyrrole-2-carboxamide] | >11.4 | 1.3 |  | 
3 | 0.132 µM | 1.79 µM | 0.272 µM | 0.479 µM | 6.53 µM | > 25 µM | 67.6% | 99.1% | 77.9% | 46.8% |  |  |  |  | O=C(Nc1nc([C@H]2CCCN2c2ccc(OC(F)(F)F)cc2)cs1)c1cccn1CC1CCOCC1 [Compound C54, (R)-1-((tetrahydro-2H-pyran-4-yl)methyl)-N-(4-(1-(4-(trifluoromethoxy)phenyl)pyrrolidin-2-yl)thiazol-2-yl)-1H-pyrrole-2-carboxamide] | 13.5 | 3.6 |  | 
4 | 0.0322 µM | 0.793 µM | 0.0562 µM | 0.0871 µM | 2.16 µM | > 25 µM | 18.2% | 16.4% | 23.7% | 5.47% |  |  |  |  | CC(=O)Nc1ccc(N2CCC[C@@H]2c2csc(NC(=O)c3cccn3CC3CCOCC3)n2)cc1 [Compound C107, (R)-N-(4-(1-(4-acetamidophenyl)pyrrolidin-2-yl)thiazol-2-yl)-1-((tetrahydro-2H-pyran-4-yl)methyl)-1H-pyrrole-2-carboxamide] | 24.6 | 2.7 |  | 
5 |  |  |  |  | 0.19 µM | > 25 µM | 19.7% | 44.9% | 65.3% | 43.3% | 0.00266 µM | 0.0504 µM | 0.00518 µM | 0.00599 µM | COC(=O)Nc1ccc(N2CCC[C@@H]2c2csc(NC(=O)c3cc(C)cn3Cc3ccnc(F)c3)n2)cc1 [Compound A172, methyl (R)-(4-(2-(2-(1-((2-fluoropyridin-4-yl)methyl)-4-methyl-1H-pyrrole-2-carboxamido)thiazol-4-yl)pyrrolidin-1-yl)phenyl)carbamate] |  |  | 19 | 2.3
6 |  |  |  |  | > 25 µM | > 25 µM | 1.3% | 4.87% | 0.24% | 0.36% | 3.36 µM | > 25 µM | > 25 µM | > 25 µM | O=C(Nc1nc(/C=C/c2ccncn2)cs1)c1cccn1Cc1ccncc1 [Compound B44, (E)-1-(pyridin-4-ylmethyl)-N-(4-(2-(pyrimidin-4-yl)vinyl)thiazol-2-yl)-1H-pyrrole-2-carboxamide] |  |  | >7.44 | >7.4
7 |  |  |  |  | 5.66 µM | > 25 µM | 15.3% | 0.84% | 3.95% | 0.16% | 0.0786 µM | 0.653 µM | 0.21 µM | 0.249 µM | CC(=O)N1CC=C(Oc2ccc(N3CCC[C@@H]3c3csc(NC(=O)c4cccn4Cc4ccnc(F)c4)n3)cc2)CC1 [Compound A82, (R)-N-(4-(1-(4-((1-acetyl-1,2,3,6-tetrahydropyridin-4-yl)oxy)phenyl)pyrrolidin-2-yl)thiazol-2-yl)-1-((2-fluoropyridin-4-yl)methyl)-1H-pyrrole-2-carboxamide] |  |  | 8.31 | 3.2
8 | 4.25 µM | > 25 µM | 6.59 µM | > 25 µM | > 25 µM | > 25 µM | 4.2% | 22.3% | 31.5% | 0.28% |  |  |  |  | O=C(Nc1nc([C@H]2CCCN2c2ccccc2)cs1)c1cccn1CC1COC1 [Compound C84, (R)-1-(oxetan-3-ylmethyl)-N-(4-(1-phenylpyrrolidin-2-yl)thiazol-2-yl)-1H-pyrrole-2-carboxamide] | >5.88 | >5.9 |  | 
9 |  |  |  |  | 0.166 µM | > 25 µM | 37.6% | 31.2% | 53.1% | 27.8% | 0.00487 µM | 0.0758 µM | 0.00915 µM | 0.0104 µM | CN(C)C(=O)Nc1ccc(N2CCC[C@@H]2c2csc(NC(=O)c3cccn3Cc3ccnc(F)c3)n2)cc1 [Compound A124, (R)-N-(4-(1-(4-(3,3-dimethylureido)phenyl)pyrrolidin-2-yl)thiazol-2-yl)-1-((2-fluoropyridin-4-yl)methyl)-1H-pyrrole-2-carboxamide] |  |  | 15.6 | 2.1
